Test system: influenza virus NS1 protein levels
Type: cell-based

Row | SMILES | viral protein levels in REDD1−/− cells (autophagy inhibitor treatment, Fig. S13) | viral protein levels in REDD1+/+ and REDD1−/− cells | influenza virus NS1 protein levels (Fig. S7)
1 | CCN(CC)CCCC(C)Nc1ccnc2cc(Cl)ccc12 (stereo not drawn) [chloroquine] | did not affect viral protein levels |  | 
2 | CO[C@H]1C[C@@H]2CC[C@@H](C)[C@@](O)(O2)C(=O)C(=O)N2CCCC[C@H]2C(=O)O[C@H]([C@H](C)C[C@@H]2CC[C@@H](O)[C@H](OC)C2)CC(=O)[C@H](C)/C=C(\C)[C@@H](O)[C@@H](OC)C(=O)[C@H](C)C[C@H](C)/C=C/C=C/C=C/1C [rapamycin] |  | down-regulated viral protein levels | reduced influenza virus NS1 protein levels

Reference: publication PMC3329801 (Nature Chemical Biology, 2011)
